From patent publication US10568897B2, “Bidens pilosa and polyacetylenic compounds for prevention and treatment of coccidiosis” (ACADEMIA SINICA, priority 2011, dated 2020)

System: E. tenella
Test: Eimeria infection (coccidiosis) in chickens: survival, body weight, clinical symptoms, gut lesions, excreted oocysts
Type: in vivo
Details: for Body weight Day 21: diet with 6 mg/kg maduramicin or 50 g/kg BPP for 7 days, 6 mg/kg
Protocol: FIGS. 3 A-F show the effect of BPP on the survival rate (FIG. 3A), sick bird appearance (FIG. 3B) and clinical symptoms (FIG. 3C) in the chickens. One-day-old chickens were fed with control diet for 14 days. On day 14, the birds were infected with vehicle (CTR) or E. tenella (ET) and fed with control diet (CTR and ET groups) and the diet containing 6 mg/kg maduramicin (ET+Mad), or 5%, or 1%, or 0.5% of BPP (ET+BPP) for additional 7 days. After the birds were sacrificed, the cecum was dissected and fixed for hematoxylin and eosin Y staining. The representative images of cecal hemorrhagic lesions (FIG. 3D) and histopathology (FIG. 3E) are shown.
One-d-old Lohmann broiler chicks hatched at Taichung Hatchery (Taiwan) were wing-banded upon arrival, weighed, and randomly placed in Petersime starter brooder units. At 1 and 2 d post-hatch, the birds were given free access to water and diets. The diets were formulated by mixing the base diet (Chicken feed, Taiwan Sugar Corporation) with carrier alone (control diet) or the indicated dose of B. pilosa power (BPP diet). In case of cytopiloyne experiments, the animal was administered with 45 μg of isolated cytopiloyne each day. After grouping, birds were tube-fed with Eimeria oocysts. Growth performance (body weight and feed conversion), pathology (bloody droppings and gut morphometry) and survival rate were measured and examined. All birds were maintained in the institutional animal facility and handled according to the guidelines of the Academia Sinica Institutional Animal Care and Utilization Committee.
Since B. pilosa was claimed to treat protozoan and bacterial infections, we tested whether B. pilosa could protect the chickens from coccidiosis. To this end, we infected the […] birds with vehicle and Eimeria oocysts. The birds were given control diet, the control diet mixed with maduramicin, a commercial anti-coccidial, and 10% BPP diet. […] In contrast, 60% of the birds with Eimeria infection survived 7 days post-infection (FIG. 3A). However, treatment with a dose (6 mg/k) of maduramicin and a dose (50 g/kg) of […] BPP increased the survival rate of the birds with Eimeria infection by 30% (FIG. 3A). […] However, treatment with maduramicin and BPP increased body weight from 132.5 g to 145.4 g and 154.3 g. respectively (Table 2). […] One-d-old chickens were fed with control diet for 14 days. On day 14, the birds were infected with vehicle (CTR) or E. tenella (ET) and fed with control diet (CTR and ET groups) and the diet containing 6 mg/kg maduramicin (ET+Mad) or 50 g/kg BPP (E+T BPP) for additional 7 days. Body weight was measured. The number of the birds in each group is indicated in the parentheses.
Next, we checked clinical symptoms of the chickens with or without Eimeria infection. […] In contrast, the birds with Eimeria infection show the typical sick bird appearances (FIG. 3B). […] In contrast, treatment with maduramicin or BPP reduced bloody droppings and diarrhea (FIG. 3C).
The gut lesions of the birds 7 days post-infection were also examined. Hemorrhagic lesions in the cecum of the birds infected with Eimeria oocysts were observed (FIG. 3D). In contrast, treatment with maduramicin and BPP alleviated the severity of hemorrhagic lesions (FIG. 3D).
The excretion of oocysts is an important indicator of the efficacy of anti-coccidial drug. Thus, we assessed the number of excreted oocysts from the chickens with Eimeria infection. […] The data on the effect of BPP on the reduction of the excreted oocysts are consistent with the alleviation of the clinical symptoms by BPP. […] One-d-old chickens were fed with control diet for 14 days. On day 14, the birds were infected with vehicle (CTR) or E. tenella (ET) and fed with control diet (CTR and ET groups) and the diet containing 6 mg/kg maduramicin (ET+Mad) or 50 g/kg BPP (ET+BPP) for additional 7 days. The number of the excreted oocysts in the feces (oocysts per gram) of the birds was determined. […]

[1] = E. tenella infected on day 14, diet with 6 mg/kg maduramicin or 50 g/kg BPP
[2] = Eimeria infected birds given diet with maduramicin or BPP

Structure (SMILES): CO[C@@H]1[C@@H](OC)[C@H](C)[C@@](O)(CC(=O)O)O[C@H]1[C@H](C)[C@H]1O[C@@]2(CC[C@@](C)([C@H]3CC[C@@](C)([C@@H]4O[C@@H]([C@H]5O[C@](C)(O)[C@H](C)C[C@@H]5C)C[C@@H]4O[C@@H]4C[C@H](OC)[C@@H](OC)[C@H](C)O4)O3)O2)C[C@H](O)[C@H]1C [maduramicin, Maduramicin]
- Number of the excreted oocysts in the infected birds (6 mg/kg maduramicin or 50 g/kg BPP diet): reduced half
- Severity of hemorrhagic lesions in the cecum (7 days post-infection): alleviated
- Number of villi and depth of crypts in the gut (7 days post-infection, histostaining): increased
- Excreted oocysts in the feces Day 4 [1]: 5 ± 0.3 oocysts per gram
- Excreted oocysts in the feces Day 5 [1]: 78 ± 3.8 oocysts per gram
- Excreted oocysts in the feces Day 6 [1]: 187 ± 4.7 oocysts per gram
- Excreted oocysts in the feces Day 7 [1]: 343 ± 52.2 oocysts per gram
- Body weight Day 21 (E. tenella infected on day 14): 145.4 g
- Body weight Day 21 (E. tenella infected on day 14, listed as Mad): 145.4 ± 6.2 g
- Bloody droppings and diarrhea [2]: reduced
- Sick bird appearance (droopiness, listlessness, ruffled feather) [2]: no obvious sick bird appearance
